US20090299056A1 (priority 2005, published 2009)

Experiments:
actistaphylococcus = settings: cited from earlier work
shigella = settings: cited from earlier work
partial E.coli = settings: cited from earlier work
Typhoid bacillus = settings: cited from earlier work
proteus mirabilis = settings: cited from earlier work
other enterobacteriaceae = settings: cited from earlier work
[1] = test system: Corynebacterium diphtheriae; settings: cited from earlier work
[2] = test system: streptococcus haemolytica; settings: cited from earlier work
bacillus anthracis = settings: cited from earlier work
Haemophilus influenzae = settings: cited from earlier work
klebsiella pneumoniae = settings: cited from earlier work
[3] = test system: PPNG (Penicillinase-Producing Neisseria gonorrheae); settings: cited from earlier work
Gram-positive coccus = settings: except enterococcus, methicillin-resistant staphylococcus; cited from earlier work
P. aeruginosa = settings: cited from earlier work
neisseria = settings: cited from earlier work
listeria = settings: cited from earlier work
acinetobacter = settings: cited from earlier work
Streptococcus pneumoniae = settings: cited from earlier work
stability, expiry date = assay type: physicochemical; settings: identified by State Food and Drug Administration
[4] = solution in water containing 0.1 g per 1 ml
dissolving rate = assay type: physicochemical

SMILES: Cc1nnc(SCC2=C(C(=O)O)N3C(=O)[C@@H](NC(=O)Cn4cnnn4)[C@H]3SC2)s1 [Cefazolin sodium]
- antibacterial activity (actistaphylococcus): low antibacterial activity
- sensitivity (shigella): sensitive
- antibacterial activity (partial E.coli): good antibacterial activity
- sensitivity (Typhoid bacillus): sensitive
- antibacterial activity (proteus mirabilis): good antibacterial activity
- sensitivity (other enterobacteriaceae): resistant
- sensitivity [1]: very sensitive
- sensitivity [2]: highly sensitive
- sensitivity (bacillus anthracis): very sensitive
- sensitivity (Haemophilus influenzae): intermediate sensitivity
- antibacterial activity (klebsiella pneumoniae): good antibacterial activity
- sensitivity [3]: resistant
- antibacterial activity (Gram-positive coccus): excellent antibacterial activity
- sensitivity (P. aeruginosa): resistant
- sensitivity (neisseria): sensitive
- sensitivity (listeria): very sensitive
- sensitivity (acinetobacter): resistant
- sensitivity (Streptococcus pneumoniae): highly sensitive

SMILES: Cc1nnc(SCC2=C(C(=O)[O-])N3C(=O)[C@@H](NC(=O)Cn4cnnn4)[C@H]3SC2)s1.O.O.O.O.O.[Na+] [cefazolin sodium pentahydrate]
- expiry date (stability, expiry date): 24 months
- pH value [4]: 4.8-6.3
- dissolving rate (dissolving rate): rapid dissolving rate
